Source: US20260193267A1, “Solid Forms of Naphthyridine Compounds” (AMGEN INC., priority 2023, published 2026)
Entries after “also recorded” stand apart in the source; their conditions may differ.

Legend:
physchem = assay: physchem
Text: Suitable nonlimiting examples of counterions for forming salts with Compound A include benzene sulfonic acid (BSA), toluene sulfonic acid (TSA), sulfuric acid, hydrochloric acid, malonic acid, naphthalene-2-sulfonic acid, methane sulfonic acid, oxalic acid, tartaric acid, ethane sulfonic acid, cyclamic acid, maleic acid, or phosphoric acid.

[1] = Dynamic vapor sorption (DVS) moisture sorption; assay type: physicochemical
Experimental: DVS—Method 1: DVS was measured via a SMS (Surface Measurement Systems) DVS Resolution. The relative humidity at 25° C. was calibrated against the deliquescence point of LiCl, Mg(NO3)2 and KCl.
DVS—Method 2: Moisture sorption data was collected using a DVS vapor sorption analyzer. A sample size of approximately 10-20 mg was used in a glass or metal pan. Hygroscopicity was evaluated from 40 to 90 to 0 to 90 to 40% RH in increments of 5% RH or from 40 to 0 to 95 to 0 to 95% RH in increments of 10% RH. Data for adsorption and desorption cycles were collected. Equilibrium criteria were set at 0.002% weight change in 1 minute with a maximum equilibration time of 180 minutes.

[2] = Stability under compression forces representative of tableting; assay type: physicochemical; settings: compression up to 200 MPa
[3] = Solubility of Form 1 in aqueous media; assay type: physicochemical; settings: aqueous buffer; aqueous media at pHs of 1-8
[4] = Physical and chemical stability in excipient blends (ssNMR); assay type: physicochemical; settings: 40° C./75% RH, 25° C./60% RH open, 40° C./75% RH closed

pKa (physchem) | change in form on DVS ([1]; 0-95% relative humidity at 25° C.) | form change by DSC and XRPD after compression [2] | solubility [3] [µg/mL] | physical and chemical stability by ssNMR [4] | SMILES | hygroscopicity by DVS ([1]; 0% to 95% relative humidity at 25° C.) | degradation related to the Maillard reaction ([4]; after 2 weeks)
4.27 |  |  |  |  | Nc1nc2cnc(C(=O)N3CCOC[C@@H]3c3ccc(C(F)(F)F)cc3)cc2c2c1COC2 [Compound A] |  | 
 | no observable change in form | no form change | > 10 | physically and chemically stable | Nc1nc2cnc(C(=O)N3CCOC[C@@H]3c3ccc(C(F)(F)F)cc3)cc2c2c1COC2 [Form 1] | non-hygroscopic; also recorded: non-hygroscopicity | no evidence of degradation related to the Maillard reaction
